How the values were obtained:
KRAS G12C = KRAS G12C (Homo sapiens (Human), UniProt P01116, C118A/G12C); test: 2 h coupled exchange assay; assay type: biochemical; details: Avg 2 h Coupled exchange IC50, 2 h compound pre-incubation
Procedure: The term “2 h coupled exchange assay” or “20 h coupled exchange assay” as used herein refers to the assay described in the Section entitled “BIOLOGICAL EVALUATION.”

[1] = test system: MIA PaCa-2 (human pancreatic carcinoma) cells; test: Cell Viability Assay (CellTiter-Glo), MIA PaCa-2; assay type: cell-based
Procedure: Serially-diluted compound or DMSO was added to the cells, and plates were incubated at 37° C., 5% CO2 for 72 h. Cell viability was measured using a CellTiter-Glo® Luminescent Cell Viability Assay kit (Promega) according to the manufacturer's protocol. The luminescence signal of treated samples was normalized to DMSO control, and data were analyzed using a 4-parameter logistic model to calculate IC50 values.

[2] = test system: A549 (human lung carcinoma) cells; test: Cell Viability Assay (CellTiter-Glo), A549; assay type: cell-based
How it was run: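 Cells grown in RPMI 1640 with 10% FBS were seeded at 1.67E+04 cells/mL and left overnight at 37° C., 5% CO2. They were then exposed to serially diluted compound for 72 h, after which CellTiter-Glo luminescence was read, normalized to DMSO, and fitted to a 4-parameter logistic model for IC50.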

Chain of KRAS G12C (P01116 other isoform, or with tags, fused parts or gaps G12C/C118A): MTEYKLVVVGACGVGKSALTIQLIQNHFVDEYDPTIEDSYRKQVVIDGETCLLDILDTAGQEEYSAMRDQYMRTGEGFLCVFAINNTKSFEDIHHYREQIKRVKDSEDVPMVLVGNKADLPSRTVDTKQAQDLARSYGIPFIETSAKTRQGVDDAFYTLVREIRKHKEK

SMILES	IC50 (KRAS G12C) [nM]	IC50 ([1]; 72 h) [nM]	IC50 ([2]; Homo sapiens, A549, 72 h) [nM]	IC50 ([2]; 72 h) [nM]	IC50 ([1]; Homo sapiens, MIA PaCa-2, 72 h) [nM]
C=CC(=O)N1CC2(CCN(c3nc4cc(-c5scnc5C)ccc4c(-c4ccccc4Cl)c3C#N)C2)C1 (single isomer, unassigned) [Example 20-3, (M)-4-(2-chlorophenyl)-7-(4-methyl-1,3-thiazol-5-yl)-2-(2-(2-propenoyl)-2,6-diazaspiro[3.4]octan-6-yl)-3-quinolinecarbonitrile]	277	2180	> 5000	–	–
C=CC(=O)N1CC2(CCN(c3nc4cc(-c5scnc5C)ccc4c(-c4ccccc4Cl)c3C#N)C2)C1 (single isomer, unassigned) [Example 20-4, (P)-4-(2-chlorophenyl)-7-(4-methyl-1,3-thiazol-5-yl)-2-(2-(2-propenoyl)-2,6-diazaspiro[3.4]octan-6-yl)-3-quinolinecarbonitrile]	69	1010	–	> 5000	–
C=CC(=O)N1CC2(CCN(c3nc4cc(-c5scnc5C)cnc4c(-c4ccccc4Cl)c3C#N)C2)C1 (single isomer, unassigned) [Example 20-8, (M)-4-(2-chlorophenyl)-7-(4-methyl-1,3-thiazol-5-yl)-2-(2-(2-propenoyl)-2,6-diazaspiro[3.4]octan-6-yl)-1,5-naphthyridine-3-carbonitrile]	139	974	> 5000	–	–
C=CC(=O)N1CC2(CCN(c3nc4cc(-c5scnc5C)cnc4c(-c4ccccc4Cl)c3C#N)C2)C1 (single isomer, unassigned) [Example 20-9, (P)-4-(2-chlorophenyl)-7-(4-methyl-1,3-thiazol-5-yl)-2-(2-(2-propenoyl)-2,6-diazaspiro[3.4]octan-6-yl)-1,5-naphthyridine-3-carbonitrile]	42	200	–	3190	–
C=CC(=O)N1CC2(CCN(c3nc4c(c(-c5ccccc5Cl)c3C#N)CCN(c3scnc3C)C4)C2)C1 (single isomer, unassigned) [Example 21-22, (P)-4-(2-chlorophenyl)-7-(4-methyl-1,3-thiazol-5-yl)-2-(2-(2-propenoyl)-2,6-diazaspiro[3.4]octan-6-yl)-5,6,7,8-tetrahydro-1,7-naphthyridine-3-carbonitrile]	34	170	> 5000	–	–
C=CC(=O)N1CC2(CCN(c3nc4c(c(-c5ccccc5Cl)c3C#N)CCN(c3scnc3C)C4)C2)C1 (single isomer, unassigned) [Example 21-23, (M)-4-(2-chlorophenyl)-7-(4-methyl-1,3-thiazol-5-yl)-2-(2-(2-propenoyl)-2,6-diazaspiro[3.4]octan-6-yl)-5,6,7,8-tetrahydro-1,7-naphthyridine-3-carbonitrile]	114	619	–	> 5000	–
C=CC(=O)N1CC2(CCN(c3nc4c(c(-c5cc(O)ccc5Cl)c3C#N)CCN(c3scnc3C)C4)C2)C1 (single isomer, unassigned) [Example 21-24, (P)-4-(2-chloro-5-hydroxyphenyl)-7-(4-methyl-1,3-thiazol-5-yl)-2-(2-(2-propenoyl)-2,6-diazaspiro[3.4]octan-6-yl)-5,6,7,8-tetrahydro-1,7-naphthyridine-3-carbonitrile]	18	297	–	> 5000	–
C=CC(=O)N1CC2(CCN(c3nc4c(c(-c5cc(O)ccc5Cl)c3C#N)CCN(c3scnc3C)C4)C2)C1 (single isomer, unassigned) [Example 21-25, (M)-4-(2-chloro-5-hydroxyphenyl)-7-(4-methyl-1,3-thiazol-5-yl)-2-(2-(2-propenoyl)-2,6-diazaspiro[3.4]octan-6-yl)-5,6,7,8-tetrahydro-1,7-naphthyridine-3-carbonitrile]	3260	7400	–	13400	–
C=CC(=O)N1CC2(CCN(c3nc4c(c(-c5cccc(C)c5C)n3)CC[C@@H](c3scnc3C)C4)C2)C1 (single isomer, unassigned) [Example 22-1]	38	–	> 5000	–	585
C=CC(=O)N1CC2(CCN(c3nc4c(c(-c5cccc(C)c5C)n3)CC[C@H](c3scnc3C)C4)C2)C1 (single isomer, unassigned) [Example 22-2]	701	–	> 25000	–	5270
C=CC(=O)N1CC2(CCN(c3nc4c(c(-c5ccccc5C)c3C#N)CC[C@@H](c3scnc3C)C4)C2)C1 (single isomer, unassigned) [Example 23-3]	107	2520	> 5000	–	–
C=CC(=O)N1CC2(CCN(c3nc4c(c(-c5ccccc5C)c3C#N)CC[C@H](c3scnc3C)C4)C2)C1 (single isomer, unassigned) [Example 23-4]	19	184	11000	–	–
C=CC(=O)N1CC2(CCN(c3nc4c(c(-c5ccccc5C)c3C#N)CC[C@@H](c3scnc3C)C4)C2)C1 (single isomer, unassigned) [Example 23-5]	8	107	–	3800	–
C=CC(=O)N1CC2(CCN(c3nc4c(c(-c5ccccc5C)c3C#N)CC[C@H](c3scnc3C)C4)C2)C1 (single isomer, unassigned) [Example 23-6]	128	3420	–	13000	–
C=CC(=O)N1CC2(CCN(c3nc4c(c(-c5ccccc5C)c3C#N)CCC(c3scnc3C)=C4)C2)C1 (single isomer, unassigned) [Example 23-23, (M)-4-(2-methylphenyl)-7-(4-methyl-1,3-thiazol-5-yl)-2-(2-(2-propenoyl)-2,6-diazaspiro[3.4]octan-6-yl)-5,6-dihydro-3-quinolinecarbonitrile]	92	–	3370	–	1080
C=CC(=O)N1CC2(CCN(c3nc4c(c(-c5ccccc5C)c3C#N)CCC(c3scnc3C)=C4)C2)C1 (single isomer, unassigned) [Example 23-24, (P)-4-(2-methylphenyl)-7-(4-methyl-1,3-thiazol-5-yl)-2-(2-(2-propenoyl)-2,6-diazaspiro[3.4]octan-6-yl)-5,6-dihydro-3-quinolinecarbonitrile]	71	705	–	> 5000	–
C=CC(=O)N1CC2(CCN(c3nc4c(c(-c5ncccc5C)c3C#N)CCC(c3scnc3C)=C4)C2)C1 (single isomer, unassigned) [Example 23-25, (P)-4-(3-methyl-2-pyridinyl)-7-(4-methyl-1,3-thiazol-5-yl)-2-(2-(2-propenoyl)-2,6-diazaspiro[3.4]octan-6-yl)-5,6-dihydro-3-quinolinecarbonitrile]	196	480	–	> 5000	–
C=CC(=O)N1CC2(CCN(c3nc4c(c(-c5ncccc5C)c3C#N)CCC(c3scnc3C)=C4)C2)C1 (single isomer, unassigned) [Example 23-26, (M)-4-(3-methyl-2-pyridinyl)-7-(4-methyl-1,3-thiazol-5-yl)-2-(2-(2-propenoyl)-2,6-diazaspiro[3.4]octan-6-yl)-5,6-dihydro-3-quinolinecarbonitrile]	551	1690	–	13000	–
C=CC(=O)N1CC2(CCN(c3nc4c(c(-c5ccccc5Cl)c3C#N)CCC(c3scnc3C)=C4)C2)C1 (single isomer, unassigned) [Example 23-41, (M)-4-(2-chlorophenyl)-7-(4-methyl-1,3-thiazol-5-yl)-2-(2-(2-propenoyl)-2,6-diazaspiro[3.4]octan-6-yl)-5,6-dihydro-3-quinolinecarbonitrile]	325	2390	5770	–	–
C=CC(=O)N1CC2(CCN(c3nc4c(c(-c5ccccc5Cl)c3C#N)CCC(c3scnc3C)=C4)C2)C1 (single isomer, unassigned) [Example 23-42, (P)-4-(2-chlorophenyl)-7-(4-methyl-1,3-thiazol-5-yl)-2-(2-(2-propenoyl)-2,6-diazaspiro[3.4]octan-6-yl)-5,6-dihydro-3-quinolinecarbonitrile]	66	561	–	> 5000	–
C=CC(=O)N1CC2(CCN(c3nc4c(c(-c5c(O)cccc5F)c3C#N)CCC(c3scnc3C)=C4)C2)C1 (single isomer, unassigned) [Example 23-50, (P)-4-(2-fluoro-6-hydroxyphenyl)-7-(4-methyl-1,3-thiazol-5-yl)-2-(2-(2-propenoyl)-2,6-diazaspiro[3.4]octan-6-yl)-5,6-dihydro-3-quinolinecarbonitrile]	38	1190	> 5000	–	–
C=CC(=O)N1CC2(CCN(c3nc4c(c(-c5c(O)cccc5F)c3C#N)CCC(c3scnc3C)=C4)C2)C1 (single isomer, unassigned) [Example 23-51, (M)-4-(2-fluoro-6-hydroxyphenyl)-7-(4-methyl-1,3-thiazol-5-yl)-2-(2-(2-propenoyl)-2,6-diazaspiro[3.4]octan-6-yl)-5,6-dihydro-3-quinolinecarbonitrile]	127000	6220	–	9640	–

— US20240059703A1 (AMGEN INC., priority 2021, published 2024)
